≈ marks a conversion by molar mass, not a printed value. Calls of active or inactive are those of the source. The rule behind the calls is not given here.
Key:
Cryptococcus neoformans [1] = experiment: Antifungal activity against Cryptococcus neoformans ATCC 14116 after 72 hrs by agar diffusion bioautography method; assay type: functional, organism-based
Aspergillus niger [2] = experiment: Antifungal activity against Aspergillus niger ATCC 16404 after 48 hrs by agar diffusion bioautography method; assay type: functional, organism-based
Candida albicans [3] = experiment: Antifungal activity against Candida albicans ATCC 90028 after 48 hrs by agar diffusion bioautography method; assay type: functional, organism-based
Aspergillus oryzae = experiment: Antifungal activity against Aspergillus oryzae ATCC 10124 after 48 hrs by agar diffusion bioautography method; assay type: functional, organism-based
[4] = Antifungal activity against Rhizopus stolonifer (+) ATCC 6227b after 48 hrs by agar diffusion bioautography method; assay type: functional
Fusarium solani = experiment: Antifungal activity against Fusarium solani ATCC 36031 after 48 hrs by agar diffusion bioautography method; assay type: functional, organism-based
Candida parapsilosis [5] = experiment: Antifungal activity against Candida parapsilosis ATCC 22019 after 48 hrs by agar diffusion bioautography method; assay type: functional, organism-based
Aspergillus niger [6] = experiment: Antifungal activity against Aspergillus niger ATCC 16404 after 48 hrs by broth microdilution technique; assay type: functional; conditions: ATCC 16404, 48 h
[7] = Antifungal activity against Rhizopus stolonifer (+) ATCC 6227b after 48 hrs by broth microdilution technique; assay type: functional
Cryptococcus neoformans [8] = experiment: Antifungal activity against Cryptococcus neoformans ATCC 14116 after 72 hrs by broth microdilution technique; assay type: functional; conditions: ATCC 14116, 72 h
Candida parapsilosis [9] = experiment: Antifungal activity against Candida parapsilosis ATCC 22019 after 48 hrs by broth microdilution technique; assay type: functional; conditions: Lodderomyces parapsilosis, ATCC 22019, 48 h
Candida albicans [10] = experiment: Antifungal activity against Candida albicans ATCC 90028 after 48 hrs by broth microdilution technique; assay type: functional; conditions: ATCC 90028, 48 h

SMILES | Activity (Cryptococcus neoformans [1]) | Activity (Aspergillus niger [2]) | Activity (Candida albicans [3]) | Activity (Aspergillus oryzae) | Activity [4] | Activity (Fusarium solani) | Activity (Candida parapsilosis [5]) | MIC (Aspergillus niger [6]) [µM] | MIC [7] [µM] | MIC (Cryptococcus neoformans [8]) [µM] | MIC (Candida parapsilosis [9]) [µM] | MIC (Candida albicans [10]) [µM]
O=C1CC(c2ccccc2-c2ccccc2C2CC(=O)c3ccc(O)cc3O2)Oc2cc(O)ccc21 (centres undefined) | inactive | inactive | inactive | inactive | inactive | inactive | inactive | – | – | – | – | –
O=c1cc(-c2ccccc2-c2ccccc2-c2cc(=O)c3ccccc3o2)oc2ccccc12 | inactive | Active | inactive | inactive | Active | inactive | inactive | > 800 | 800 (≈ 354 µg/mL) | – | – | –
COc1ccc(-c2cc(=O)c3cc(-c4ccc5oc(-c6ccc(OC)cc6)cc(=O)c5c4)ccc3o2)cc1 | inactive | inactive | inactive | inactive | inactive | inactive | inactive | – | – | – | – | –
C[C@@H]1[C@H](O)[C@@H](C)/C=C/C=C/C=C/C=C/C=C/C=C/C=C/[C@H](O[C@@H]2O[C@H](C)[C@@H](O)[C@H](N)[C@@H]2O)C[C@@H]2O[C@](O)(C[C@@H](O)C[C@@H](O)[C@H](O)CC[C@@H](O)C[C@@H](O)CC(=O)O[C@H]1C)C[C@H](O)[C@H]2C(=O)O | Active | Active | Active | Active | Active | Active | Active | – | – | – | – | –
O=C1CC(c2ccc(O)cc2)Oc2cc(O)ccc21 (centres undefined) | – | – | – | – | – | – | – | > 800 | – | – | – | –
O=C1CC(c2ccc(O)c(-c3cc(C4CC(=O)c5ccc(O)cc5O4)ccc3O)c2)Oc2cc(O)ccc21 (centres undefined) | inactive | Active | inactive | inactive | inactive | inactive | inactive | 200 (≈ 102 µg/mL) | – | – | – | –
COc1cc(O)c(C(=O)/C=C/c2ccc(OC)c(-c3cc(/C=C/C(=O)c4c(O)cc(OC)cc4OC)ccc3OC)c2)c(OC)c1 | inactive | Active | inactive | inactive | inactive | inactive | inactive | 13 (≈ 8.15 µg/mL) | – | – | – | –
O=C1CC(c2ccccc2-c2ccccc2C2CC(=O)c3ccc(OCc4ccccc4)cc3O2)Oc2cc(OCc3ccccc3)ccc21 (centres undefined) | inactive | inactive | inactive | inactive | inactive | inactive | inactive | – | – | – | – | –
O=c1cc(-c2ccc(O)c(-c3cc(-c4cc(=O)c5c(O)cc(O)cc5o4)ccc3O)c2)oc2cc(O)cc(O)c12 | inactive | Active | inactive | inactive | inactive | inactive | inactive | 100 (≈ 53.8 µg/mL) | – | – | – | –
O=c1c(-c2c(-c3ccccc3)oc3ccccc3c2=O)c(-c2ccccc2)oc2ccccc12 | Active | inactive | inactive | inactive | Active | inactive | Active | – | > 800 | > 800 | 400 (≈ 177 µg/mL) | –
O=C(/C=C/c1ccccc1)c1ccc(OCc2ccccc2)cc1O | – | – | – | – | – | – | – | 100 (≈ 33 µg/mL) | – | > 800 | – | –
O=C(/C=C/c1ccc(O)cc1)c1c(O)cc(O)cc1O [4,2',4',6'-TETRAHYDROXYCHALCONE] | – | – | – | – | – | – | – | – | 800 (≈ 218 µg/mL) | 400 (≈ 109 µg/mL) | – | > 800
O=c1cc(-c2ccccc2)oc2ccccc12 [FLAVONE] | – | – | – | – | – | – | – | 800 (≈ 178 µg/mL) | 100 (≈ 22.2 µg/mL) | 100 (≈ 22.2 µg/mL) | 200 (≈ 44.4 µg/mL) | –
COc1cc(OC)c2c(=O)cc(-c3ccc(OC)c(-c4cc(-c5cc(=O)c6c(OC)cc(OC)cc6o5)ccc4OC)c3)oc2c1 | inactive | Active | inactive | inactive | inactive | inactive | inactive | 400 (≈ 249 µg/mL) | – | – | – | –
O=C(/C=C/c1ccc(O)c(-c2cc(/C=C/C(=O)c3c(O)cc(O)cc3O)ccc2O)c1)c1c(O)cc(O)cc1O | Active | inactive | Active | inactive | Active | inactive | inactive | – | 200 (≈ 108 µg/mL) | 13 (≈ 7.05 µg/mL) | – | 800 (≈ 434 µg/mL)
O=C(/C=C/c1ccc(OCc2ccccc2)c(-c2cc(/C=C/C(=O)c3c(O)cc(OCc4ccccc4)cc3OCc3ccccc3)ccc2OCc2ccccc2)c1)c1c(O)cc(OCc2ccccc2)cc1OCc1ccccc1 | inactive | inactive | inactive | inactive | inactive | inactive | inactive | – | – | – | – | –
O=C1CC(c2ccc(OCc3ccccc3)c(-c3cc(C4CC(=O)c5c(O)cc(OCc6ccccc6)cc5O4)ccc3OCc3ccccc3)c2)Oc2cc(OCc3ccccc3)cc(O)c21 (centres undefined) | inactive | inactive | Active | inactive | inactive | inactive | inactive | – | – | – | – | > 800
O=C(/C=C/c1ccc(OCc2ccccc2)c(-c2cc(/C=C/C(=O)c3ccc(OCc4ccccc4)cc3O)ccc2OCc2ccccc2)c1)c1ccc(OCc2ccccc2)cc1O | Active | inactive | inactive | inactive | inactive | inactive | inactive | – | – | – | – | –
O=C1CC(c2ccc(OCc3ccccc3)c(-c3cc(C4CC(=O)c5ccc(OCc6ccccc6)cc5O4)ccc3OCc3ccccc3)c2)Oc2cc(OCc3ccccc3)ccc21 (centres undefined) | inactive | inactive | inactive | inactive | inactive | inactive | inactive | – | – | – | – | –
O=C1C[C@@H](c2ccc(O)c(-c3cc([C@@H]4CC(=O)c5c(O)cc(O)cc5O4)ccc3O)c2)Oc2cc(O)cc(O)c21 | inactive | inactive | inactive | inactive | inactive | inactive | inactive | – | – | – | – | –
O=c1cc(-c2ccc(O)cc2)oc2ccc(-c3ccc4oc(-c5ccc(O)cc5)cc(=O)c4c3)cc12 | inactive | inactive | inactive | inactive | inactive | inactive | Active | – | – | – | 400 (≈ 190 µg/mL) | –
O=C1CC(c2ccc(OCc3ccccc3)cc2)Oc2cc(OCc3ccccc3)cc(O)c21 (centres undefined) | – | – | – | – | – | – | – | – | – | – | – | > 800
COc1ccc(/C=C/C(=O)c2c(O)cc(OC)cc2OC)cc1 [FLAVOKAWAIN A] | – | – | – | – | – | – | – | > 800 | – | – | – | –
O=C(/C=C/c1ccccc1-c1ccccc1/C=C/C(=O)c1ccc(OCc2ccccc2)cc1O)c1ccc(OCc2ccccc2)cc1O | Active | Active | inactive | inactive | inactive | inactive | inactive | > 800 | – | > 800 | – | –
O=c1c(O)c(-c2ccc(O)c(-c3cc(-c4oc5cc(O)cc(O)c5c(=O)c4O)ccc3O)c2)oc2cc(O)cc(O)c12 | inactive | inactive | inactive | inactive | inactive | inactive | inactive | – | – | – | – | –
COc1ccc(-c2cc(=O)c3c(OC)cc(OC)cc3o2)cc1 [TRIMETHYLAPIGENIN] | – | – | – | – | – | – | – | > 800 | – | – | – | –
O=c1cc(-c2ccc(O)cc2)oc2cc(O)cc(O)c12 [APIGENIN] | – | – | – | – | – | – | – | 6 (≈ 1.62 µg/mL) | – | – | – | –
O=c1cc(-c2ccc(O)cc2)oc2ccccc12 | – | – | – | – | – | – | – | – | – | – | 200 (≈ 47.6 µg/mL) | –

Reference: ChEMBL document CHEMBL1777672, “Synthesis and antifungal activities of natural and synthetic biflavonoids” (2011)
